# From the OligoGym collection
# Several values for one entry are separate records, joined by “and”; a condition that tells them apart may be missing. Equal entries are not always repeated. After the bases stand the sugars from the 5' end (letter, count) and the backbone: PS all phosphorothioate, else s phosphorothioate and o phosphodiester by linkage. Methylation of C is not given here. k = constrained ethyl (cEt); d = 2'-deoxy (DNA)
# Target: MALAT1
# Conditions: ASO, A431, 0.005 µM
sequence,measurement,value
"TGCCTTAAAGTTACAT (sugars k3 d10 k3, PS)",target mRNA inhibition,19%
"TGCGCTTAAGAGGGCA (sugars k3 d10 k3, PS)",target mRNA inhibition,7%
"TGCTCGCCTCCTCCGT (sugars k3 d10 k3, PS)",target mRNA inhibition,34%
"TGCTTACACACAACTG (sugars k3 d10 k3, PS)",target mRNA inhibition,35%
"TGGAACTTGAATGCAA (sugars k3 d10 k3, PS)",target mRNA inhibition,10%
"TGGCCCTTCGCATACG (sugars k3 d10 k3, PS)",target mRNA inhibition,28%
"TGGCGGACTTTCTCCC (sugars k3 d10 k3, PS)",target mRNA inhibition,9%
"TGGTCTAGGATCCTCT (sugars k3 d10 k3, PS)",target mRNA inhibition,-15%
"TGGTTATAGCTTGACA (sugars k3 d10 k3, PS)",target mRNA inhibition,82% and 95%
"TGTAAGAATTAAGACC (sugars k3 d10 k3, PS)",target mRNA inhibition,18%
"TGTATATAGTTCAAAG (sugars k3 d10 k3, PS)",target mRNA inhibition,9%
"TGTCTAAGAGGTTATT (sugars k3 d10 k3, PS)",target mRNA inhibition,10%
"TGTTAACAATTTGCAG (sugars k3 d10 k3, PS)",target mRNA inhibition,20%
"TGTTAAGACCATCCCA (sugars k3 d10 k3, PS)",target mRNA inhibition,9%
"TGTTAAGAGAAGCCCA (sugars k3 d10 k3, PS)",target mRNA inhibition,2%
"TGTTACACCTTGAGTC (sugars k3 d10 k3, PS)",target mRNA inhibition,37%
"TTAAACGGGTCATCAA (sugars k3 d10 k3, PS)",target mRNA inhibition,0%
"TTAAAGAGTGTTCGCA (sugars k3 d10 k3, PS)",target mRNA inhibition,59% and 39%
"TTAACCAACTTCCCCT (sugars k3 d10 k3, PS)",target mRNA inhibition,43%
"TTAAGACCATCCCAAA (sugars k3 d10 k3, PS)",target mRNA inhibition,5%
"TTAATGCACTGGTACA (sugars k3 d10 k3, PS)",target mRNA inhibition,22%
"TTACACCTTGAGTCAT (sugars k3 d10 k3, PS)",target mRNA inhibition,21%
"TTACACTGCTCTGGGT (sugars k3 d10 k3, PS)",target mRNA inhibition,2%
"TTACAGAAGTCTCGGG (sugars k3 d10 k3, PS)",target mRNA inhibition,11%
"TTACATGTTCCCACCC (sugars k3 d10 k3, PS)",target mRNA inhibition,19%
"TTACCAACCACTCGCT (sugars k3 d10 k3, PS)",target mRNA inhibition,2%
"TTACCTTGAAACCGAT (sugars k3 d10 k3, PS)",target mRNA inhibition,31%
"TTACTGGTTTAAGTTG (sugars k3 d10 k3, PS)",target mRNA inhibition,24%
"TTATAATAGAGCTACT (sugars k3 d10 k3, PS)",target mRNA inhibition,4%
"TTATAGACGGAGAACA (sugars k3 d10 k3, PS)",target mRNA inhibition,8%
"TTATAGCTTGACAAGC (sugars k3 d10 k3, PS)",target mRNA inhibition,37%
"TTATCAATTCACCAAG (sugars k3 d10 k3, PS)",target mRNA inhibition,25%
"TTATCTGTTAACAGCT (sugars k3 d10 k3, PS)",target mRNA inhibition,31%
"TTATGCTTATTCCCCA (sugars k3 d10 k3, PS)",target mRNA inhibition,75% and 85%
"TTATGGATCATGCCCA (sugars k3 d10 k3, PS)",target mRNA inhibition,28%
"TTATTCCCCAATGGAG (sugars k3 d10 k3, PS)",target mRNA inhibition,18%
"TTCAACTGGAAGCTCC (sugars k3 d10 k3, PS)",target mRNA inhibition,58% and 57%
"TTCATTACCCCAACTA (sugars k3 d10 k3, PS)",target mRNA inhibition,42%
"TTCCGCTCAAATCCTG (sugars k3 d10 k3, PS)",target mRNA inhibition,35%
"TTCGCCTTCCCGTACT (sugars k3 d10 k3, PS)",target mRNA inhibition,63%
"TTCTAGCTTCAAGTAT (sugars k3 d10 k3, PS)",target mRNA inhibition,25%
"TTCTGAACCGGAGCAG (sugars k3 d10 k3, PS)",target mRNA inhibition,23%
"TTCTGATAACGAAGAG (sugars k3 d10 k3, PS)",target mRNA inhibition,8%
"TTGAACCCCGTCCTGG (sugars k3 d10 k3, PS)",target mRNA inhibition,12%
"TTGAAGCATACCTTAA (sugars k3 d10 k3, PS)",target mRNA inhibition,28%
